{"source": "ChEMBL document CHEMBL1697731", "about": "“Cheminformatics analysis of assertions mined from literature that describe drug-induced liver injury in different species” (Chem Res Toxicol, 2010)", "key": {"Hepatotoxicity [1]": {"test_system": "Hepatotoxicity", "assay": "Literature-mined compound from Fourches et al multi-species drug-induced liver injury (DILI) dataset, effect in rodents", "conditions": "rodentia"}, "Hepatotoxicity [2]": {"test_system": "Hepatotoxicity", "assay": "Literature-mined compound from Fourches et al multi-species drug-induced liver injury (DILI) dataset, effect in non-rodents"}, "Hepatotoxicity [3]": {"test_system": "Hepatotoxicity", "assay": "Literature-mined compound from Fourches et al multi-species drug-induced liver injury (DILI) dataset, effect in humans", "conditions": "human"}}, "data": [{"compound": "Cc1onc(-c2c(F)cccc2Cl)c1C(=O)N[C@@H]1C(=O)N2[C@@H]1SC(C)(C)[C@@H]2C(=O)O", "note": "[FLOXACILLIN]", "values": [{"measurement": "Hepatotoxicity", "setting": "Hepatotoxicity [1]", "result": "drug-induced liver injury reported"}, {"measurement": "Hepatotoxicity", "setting": "Hepatotoxicity [2]", "result": "no drug-induced liver injury reported"}, {"measurement": "Hepatotoxicity", "setting": "Hepatotoxicity [3]", "result": "drug-induced liver injury reported"}]}, {"compound": "O=C(O)C(Cl)(Cl)Cl", "note": "[TRICHLOROACETIC ACID]", "values": [{"measurement": "Hepatotoxicity", "setting": "Hepatotoxicity [1]", "result": "drug-induced liver injury reported"}, {"measurement": "Hepatotoxicity", "setting": "Hepatotoxicity [2]", "result": "no drug-induced liver injury reported"}, {"measurement": "Hepatotoxicity", "setting": "Hepatotoxicity [3]", "result": "no drug-induced liver injury reported"}]}, {"compound": "C[C@H](CS)C(=O)N1CCC[C@H]1C(=O)O", "note": "[CAPTOPRIL]", "values": [{"measurement": "Hepatotoxicity", "setting": "Hepatotoxicity [1]", "result": "drug-induced liver injury reported"}, {"measurement": "Hepatotoxicity", "setting": "Hepatotoxicity [2]", "result": "no drug-induced liver injury reported"}, {"measurement": "Hepatotoxicity", "setting": "Hepatotoxicity [3]", "result": "drug-induced liver injury reported"}]}, {"compound": "Nc1ncn([C@H]2C[C@H](O)[C@@H](CO)O2)c(=O)n1", "note": "[DECITABINE]", "values": [{"measurement": "Hepatotoxicity", "setting": "Hepatotoxicity [1]", "result": "no drug-induced liver injury reported"}, {"measurement": "Hepatotoxicity", "setting": "Hepatotoxicity [2]", "result": "no drug-induced liver injury reported"}, {"measurement": "Hepatotoxicity", "setting": "Hepatotoxicity [3]", "result": "drug-induced liver injury reported"}]}, {"compound": "GADOBENATE DIMEGLUMINE", "values": [{"measurement": "Hepatotoxicity", "setting": "Hepatotoxicity [1]", "result": "no drug-induced liver injury reported"}, {"measurement": "Hepatotoxicity", "setting": "Hepatotoxicity [2]", "result": "no drug-induced liver injury reported"}, {"measurement": "Hepatotoxicity", "setting": "Hepatotoxicity [3]", "result": "drug-induced liver injury reported"}]}, {"compound": "CCCCC(C)(O)C/C=C/[C@H]1[C@H](O)CC(=O)[C@@H]1CCCCCCC(=O)OC", "note": "(some centres not stated) [MISOPROSTOL]", "values": [{"measurement": "Hepatotoxicity", "setting": "Hepatotoxicity [1]", "result": "drug-induced liver injury reported"}, {"measurement": "Hepatotoxicity", "setting": "Hepatotoxicity [2]", "result": "drug-induced liver injury reported"}, {"measurement": "Hepatotoxicity", "setting": "Hepatotoxicity [3]", "result": "no drug-induced liver injury reported"}]}, {"compound": "C[C@H]1c2cccc(O)c2C(=O)C2=C(O)[C@]3(O)C(=O)C(C(N)=O)=C(O)[C@@H](N(C)C)[C@@H]3[C@@H](O)[C@@H]21.O", "note": "[DOXYCYCLINE]", "values": [{"measurement": "Hepatotoxicity", "setting": "Hepatotoxicity [1]", "result": "drug-induced liver injury reported"}, {"measurement": "Hepatotoxicity", "setting": "Hepatotoxicity [2]", "result": "drug-induced liver injury reported"}, {"measurement": "Hepatotoxicity", "setting": "Hepatotoxicity [3]", "result": "drug-induced liver injury reported"}]}, {"compound": "CCOC(=O)CC(SP(=S)(OC)OC)C(=O)OCC", "note": "(configuration not stated) [MALATHION]", "values": [{"measurement": "Hepatotoxicity", "setting": "Hepatotoxicity [1]", "result": "drug-induced liver injury reported"}, {"measurement": "Hepatotoxicity", "setting": "Hepatotoxicity [2]", "result": "no drug-induced liver injury reported"}, {"measurement": "Hepatotoxicity", "setting": "Hepatotoxicity [3]", "result": "no drug-induced liver injury reported"}]}, {"compound": "COc1ccc2cc1Oc1ccc(cc1)C[C@H]1c3cc(c(OC)cc3CCN1C)Oc1c(OC)c(OC)cc3c1[C@H](C2)N(C)CC3", "note": "[FANCHININ]", "values": [{"measurement": "Hepatotoxicity", "setting": "Hepatotoxicity [1]", "result": "drug-induced liver injury reported"}, {"measurement": "Hepatotoxicity", "setting": "Hepatotoxicity [2]", "result": "no drug-induced liver injury reported"}, {"measurement": "Hepatotoxicity", "setting": "Hepatotoxicity [3]", "result": "drug-induced liver injury reported"}]}, {"compound": "CC(=O)O[C@]1(C(C)=O)CC[C@H]2[C@@H]3C[C@H](C)C4=CC(=O)CC[C@]4(C)[C@H]3CC[C@@]21C", "note": "[MEDROXYPROGESTERONE ACETATE]", "values": [{"measurement": "Hepatotoxicity", "setting": "Hepatotoxicity [1]", "result": "drug-induced liver injury reported"}, {"measurement": "Hepatotoxicity", "setting": "Hepatotoxicity [2]", "result": "no drug-induced liver injury reported"}, {"measurement": "Hepatotoxicity", "setting": "Hepatotoxicity [3]", "result": "no drug-induced liver injury reported"}]}, {"compound": "C[C@H](CCC(=O)O)[C@H]1CC[C@H]2[C@@H]3[C@H](O)C[C@@H]4C[C@H](O)CC[C@]4(C)[C@H]3CC[C@]12C", "note": "[CHENODIOL]", "values": [{"measurement": "Hepatotoxicity", "setting": "Hepatotoxicity [1]", "result": "drug-induced liver injury reported"}, {"measurement": "Hepatotoxicity", "setting": "Hepatotoxicity [2]", "result": "drug-induced liver injury reported"}, {"measurement": "Hepatotoxicity", "setting": "Hepatotoxicity [3]", "result": "drug-induced liver injury reported"}]}, {"compound": "CC1=C(/C=C/C(C)=C/C=C/C(C)=C/C(=O)O)C(C)(C)CCC1", "note": "[TRETINOIN]", "values": [{"measurement": "Hepatotoxicity", "setting": "Hepatotoxicity [1]", "result": "drug-induced liver injury reported"}, {"measurement": "Hepatotoxicity", "setting": "Hepatotoxicity [2]", "result": "no drug-induced liver injury reported"}, {"measurement": "Hepatotoxicity", "setting": "Hepatotoxicity [3]", "result": "drug-induced liver injury reported"}]}, {"compound": "CARBOPLATIN", "values": [{"measurement": "Hepatotoxicity", "setting": "Hepatotoxicity [1]", "result": "drug-induced liver injury reported"}, {"measurement": "Hepatotoxicity", "setting": "Hepatotoxicity [2]", "result": "no drug-induced liver injury reported"}, {"measurement": "Hepatotoxicity", "setting": "Hepatotoxicity [3]", "result": "drug-induced liver injury reported"}]}, {"compound": "C#C[C@]1(O)CC[C@H]2[C@@H]3CCC4=Cc5oncc5C[C@]4(C)[C@H]3CC[C@@]21C", "note": "[DANAZOL]", "values": [{"measurement": "Hepatotoxicity", "setting": "Hepatotoxicity [1]", "result": "no drug-induced liver injury reported"}, {"measurement": "Hepatotoxicity", "setting": "Hepatotoxicity [2]", "result": "no drug-induced liver injury reported"}, {"measurement": "Hepatotoxicity", "setting": "Hepatotoxicity [3]", "result": "drug-induced liver injury reported"}]}]}
